Assay results: US20040009899A1, “Treating dominant disorders” (priority 2002, published 2004)

Legend:
R6/2 mice [1] = assay: Body weight of treated R6/2 mice; type: in vivo, mouse
Protocol: (§1) Experiments were conducted to determine whether PNA-mediated inhibition of mutant huntingtin expression increased survival and/or reversed features of pathophysiology. R6/2 and non-transgenic mice were divided into two groups of three to five mice each, and treated with either HDs or ACSF for approximately ten weeks, beginning at five to six weeks of age. Treated animals received a dose of 0.15 mg/kg of the HDs PNA oligomer, administered by continuous infusion through an Alzet pump. All ACSF-treated transgenic mice died by three months of age.
(§2) In other experiments, R6/2 mice were divided into five groups (designated groups 1-5) containing eight to ten animals each. Groups 1-4 received either saline (group 1) or a specific amount of HDs (groups 2-4). Group 5 included untreated R6/2 mice. A sixth group included untreated non-transgenic B6CBA control mice. At 8 weeks of age, each mouse was weighed to establish a weight stability baseline. Baselines for clasping behavior, motility, and motor skill were established at 9 weeks of age using the methods described in Example 1.
(§3) At 9 weeks of age, the mice in each group received saline (group 1) or HDs at 2.0 mg/kg, 5.0 mg/kg, or 20.0 mg/kg (groups 2, 3, and 4, respectively) by i.p. injection every 48 hours. […] Weight stability, clasping behavior, motility, and motor skill were assessed weekly during the treatment period. […]

R6/2 mice [2] = assay: Open field test to assess motility; type: in vivo, mouse; conditions: for level of motility (open field test): R6/2 mice
Protocol: Open field test to assess motility: Each mouse was confined for 10 minutes in a Plexiglas locomotion chamber equipped with a laser source and detector. As the mouse passed between the laser source and detector, the laser beam was “broken” and the event was automatically recorded. The number of beam breaks for B6CBA mice treated with the HDs PNA oligomer was compared to that of saline-treated or untreated control B6CBA mice. This number was directly related to general activity of the mice.
as §1, §2
(§4) At 9 weeks of age, the mice in each group received saline (group 1) or HDs at 2.0 mg/kg, 5.0 mg/kg, or 20.0 mg/kg (groups 2, 3, and 4, respectively) by i.p. injection every 48 hours. The injections continued through 13 weeks of age (i.e., treatment for […]). Weight stability, clasping behavior, motility, and motor skill were assessed weekly during the treatment period. At the time of death or after the treatment period, the brain of each mouse was removed using standard methods. The brains were divided into hemispheres, and one hemisphere of each brain was saved for protein and mRNA analysis. The remaining hemispheres were fixed directly in 10% formalin for 5-7 days. After fixing, the brain hemispheres were weighed individually and processed for sectioning and pathophysiology.

R6/2 mice [3] = assay: Clasping test; type: in vivo, mouse; conditions: any group (2.0, 5.0 or 20.0 mg/kg i.p. every 48 hours)
Protocol: Clasping test: Dystonic movement was assessed using a procedure adapted from Yamamoto and colleagues (Yamamoto et al., Cell, 101:57-66, 2000). Each animal was suspended by the tail for 15 seconds, and its behavior was videotaped for subsequent analysis. The number and duration of abnormal movements were recorded upon viewing the videotaped behavior. An abnormal movement was defined as any dystonic movement of hindlimbs and/or forelimbs and/or trunk during which the limbs were pulled in toward the body in a manner distinct from that observed in wild-type mice. The duration of dystonic movements was recorded as a percent of total time. Mice were assessed for clasping score and clasping duration. The test period was divided into 2-second increments.
In other experiments, R6/2 mice were divided into five groups (designated groups 1-5) containing eight to ten animals each. Groups 1-4 received either saline (group 1) or a specific amount of HDs (groups 2-4). Group 5 included untreated R6/2 mice. A sixth group included untreated non-transgenic B6CBA control mice. […]
as §3

R6/2 mice [4] = assay: Brain weight / brain atrophy of treated R6/2 mice; type: in vivo, mouse
Protocol: as §1, §4

non-transgenic mice = conditions: mouse, in vivo, 0.15 mg/kg
Protocol: Cannulation and microsurgery—Method 2: Pump cannulas were prepared 48 hours before surgery. For adaptation to mice, Alzet pump cannulas were ground to a length of 2 mm. The cannulas then were sterilized by gas ozonation. Mice were anesthetized via i.p. injection with 100 mg/kg of a ketamine/xylazine solution containing 8 mg/mL ketamine and 1 mg/mL xylazine in 0.9% saline. Once anesthetized, each mouse was cannulated. Each anesthetized mouse was placed in a Stoelting Stereotaxic Frame with a mouse adapter (Stoelting Instruments). An incision was made using a scalpel, and the skin and tissue were pulled back with swabs to reveal the skull. The cannulation site was positioned for optimum access to the ventricle, at coordinates AP −0.2 mm, Horiz −1 mm from bregma. A cannula entry port and two bone screw ports were opened in the skull using a Dremel Flex Shaft Drill (Stoelting Instruments) with a 2.1 mm burr. The cannula was lowered into place and affixed using Loctite 454 (Loctite Corp., Avon, Ohio). An Alzet Mini-Osmotic Pump was inserted into a pouch beneath the skin and attached to the cannula with silastic tubing. The wound was closed using wound clips and the animal was allowed to recuperate.
Delivery of PNA oligomer solutions: All handling of tubing and cannulas was done under sterile conditions. […]

[5] = surviving R6/2 mice, 0.15 mg/kg continuous infusion by Alzet pump

## HDs: sense PNA oligomer, 14 residues, 5′-GGACTGCCGTGCCG-3′ (SEQ ID NO:3), specific for the expanded human HD allele (all peptide nucleic acid (PNA))
R6/2 mice [1]; R6/2 mice, 5.0 mg/kg i.p. every 48 hours, compared to 2.0 mg/kg or 20.0 mg/kg
  weight stability over the treatment period: more stable weight
R6/2 mice [1]; [5]
  body weight over time: continued to gain weight over time
R6/2 mice [2]; 2.0 mg/kg i.p. every 48 hours, compared to untreated R6/2 mice
  level of motility (open field test): no difference in motility
R6/2 mice [2]; 5.0 mg/kg i.p. every 48 hours, lower than nontransgenic controls
  level of motility (open field test): increased as compared to untreated R6/2 mice
R6/2 mice [2]; 20.0 mg/kg i.p. every 48 hours, lower than nontransgenic controls
  level of motility (open field test): increased as compared to untreated R6/2 mice
R6/2 mice [2]; [5]
  motility as compared to non-transgenic animals: decline in motility
R6/2 mice [3]
  clasping behavior over the treatment period: No significant alterations in clasping behavior
R6/2 mice [4]; R6/2 mice, 0.15 mg/kg continuous infusion by Alzet pump
  general brain atrophy typical of untreated R6/2 mice: did not display the general brain atrophy
R6/2 mice [4]; R6/2 mice, 20.0 mg/kg i.p. every 48 hours
  recovery in brain hemisphere weight as compared to untreated non-transgenic mice: greatest degree of recovery
R6/2 mice [4]; R6/2 mice, all doses (2.0, 5.0, 20.0 mg/kg i.p. every 48 hours), dose dependent effect
  brain hemisphere weight: greater than the weights of brain hemispheres from untreated R6/2 mice
R6/2 mice [4]; two non-surviving treated R6/2 mice, 0.15 mg/kg continuous infusion by Alzet pump
  brain weight: increased brain weight
non-transgenic mice
  effect of treatment on non-transgenic animals: appeared unaffected
